Values of other authors, collected in patent US11779563B2, “Oral cannabinoid pharmaceutical compositions and methods of treating sleep disorders” (Curio IP, LLC, priority 2021, dated 2023).

Details: following smoking of the equivalent of 10-15 mg over 5-7 minutes

CCCCCc1cc(O)c2c(c1)OC(C)(C)[C@@H]1CCC(C)=C[C@@H]21 [THC, (−)-(6aR,10aR)-6,6,9-trimethyl-3-pentyl-6a,7,8,10a-tetrahydro-6H-benzo[c]chromen-1-ol]
peak plasma levels: around 100 μg/L
